Laboratory results from US20240285643A1, “TREATING INFLUENZA USING SUBSTITUTED POLYCYCLIC PYRIDONE DERIVATIVES AND PRODRUGS THEREOF IN A SUBJECT HAVING INFLUENZA AND A SEVERE INFLUENZA CONDITION” (Shionogi & Co., Ltd., priority 2019, published 2024).

Tests used:
[1] = SD, rat, in vivo
[2] = parameters: species or system rats; conditions: rat, po
Source text: FIGS. 1 and 2 show a result of measuring the plasma concentration of Compound (III) and Compound (II-6), respectively, after oral administration of prodrug Compound (II-6) to rats under non-fasting conditions.

[3] = test system: influenza type A virus A/Osaka/129/2009 and Streptococcus pneumoniae SR1326; format: in vivo, BALB/c mice; conditions: for mice recovered from body weight loss and survived: BXA 10 mg/kg sc single dose, OSP 10 mg/kg po bid 5 days
[4] = test system: influenza type A virus A/Osaka/129/2009 and Streptococcus pneumoniae SR1326; format: in vivo, BALB/c mice; conditions: for mice survived: BXA 10 mg/kg sc single dose, OSP 10 mg/kg po bid 5 days, through 15 days
[5] = clinical; conditions: human, in vivo
Method: Patients were administered up to three doses of baloxavir marboxil separated by 3 days (i.e., Days 1, 4, and 7). […] Likewise, total drug exposure simulated on Day 7 area under the plasma concentration-time curve for a dosing interval (AUCtau) was not expected to exceed area under the concentration-time curve from Time 0 to infinity (AUCinf) of the TQT, regardless of dose.

Compound | BA (%) [1] [%] | mice recovered from body weight loss and survived [3] | mice survived [4] | also measured
CC(=O)Oc1c2n(ccc1=O)N([C@@H]1c3ccccc3SCc3c1ccc(F)c3F)[C@@H]1COCCN1C2=O [II-4] | 20.0 | – | – | –
COC(=O)OCOc1c2n(ccc1=O)N([C@@H]1c3ccccc3SCc3c1ccc(F)c3F)[C@@H]1COCCN1C2=O [II-6, baloxavir marboxil] | 14.9 | – | – | conversion of prodrug to Compound (III) in vivo [2]: metabolized promptly to Compound (III)
CCOC(=O)C1=C[C@@H](OC(CC)CC)[C@H](NC(C)=O)[C@@H](N)C1 [OSP, Oseltamivir phosphate, reference compound] | – | all mice died | all mice died | efficacy on survival ([3]; mouse, in vivo): not effective; survival time compared with vehicle treatment ([4]; 2-day delayed treatment, log rank test): significantly prolonged
baloxavir marboxil [II-6] | – | – | – | body weight change after virus infection ([4]; 2-day delayed treatment, compared with vehicle, OSP or monotherapy): less reduction of body weight
O=C1c2c(O)c(=O)ccn2N([C@@H]2c3ccccc3SCc3c2ccc(F)c3F)[C@@H]2COCCN12 [III, baloxavir] | 4.2 | 40% | 75% | Cmax [5]: 126 ng/mL; half-life [5]: ~70 h
